Measurements: PubChem BioAssay (NCI)
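Protocol summary: plate cells (96-well), add compound at 5 concentrations, incubate 48 h, interpolate endpoints linearly. Here, GI50 denotes the concentration required for 50% inhibition of growth. Definition used: TGI = concentration required for complete inhibition of growth.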

What was measured:
Assay in all cases: NCI anticancer screen, dose series, 48 h
[1] = test system: KM12 colon
[2] = test system: OVCAR-3 ovarian
[3] = test system: ACHN renal
[4] = test system: UACC-257 melanoma
[5] = test system: DU-145 prostate
[6] = test system: PC-3 prostate
[7] = test system: MDA-MB-435
[8] = test system: TK-10 renal
[9] = test system: EKVX NSCLC
[10] = test system: MCF7 breast
[11] = test system: COLO 205 colon
[12] = test system: A549 NSCLC
[13] = test system: 786-0 renal
[14] = test system: NCI-H522 lung
[15] = test system: OVCAR-4 ovarian
[16] = test system: CAKI-1 renal
[17] = test system: A498 renal
[18] = test system: CCRF-CEM leukemia
[19] = test system: RXF 393 renal
[20] = test system: OVCAR-8 ovarian
[21] = test system: HCC-2998 colon
[22] = test system: SF-539 CNS
[23] = test system: M14 melanoma
[24] = test system: UO-31 renal
[25] = test system: SNB-75 CNS
[26] = test system: UACC-62 melanoma
[27] = test system: HS 578T breast
[28] = test system: K-562 leukemia
[29] = test system: HOP-62 NSCLC
[30] = test system: MOLT-4 leukemia
[31] = test system: SF-295 CNS
[32] = test system: SF-268 CNS
[33] = test system: SN12C renal
[34] = test system: NCI-H226 lung
[35] = test system: LOX IMVI melanoma
[36] = test system: BT-549 breast
[37] = test system: OVCAR-5 ovarian
[38] = test system: MALME-3M melanoma
[39] = test system: SK-MEL-2 melanoma
[40] = test system: RPMI-8226 leukemia
[41] = test system: IGROV1 ovarian
[42] = test system: HT29 colon
[43] = test system: MDA-MB-231 breast
[44] = test system: HCT-15 colon
[45] = test system: NCI/ADR-RES ovarian
[46] = test system: HOP-92 NSCLC
[47] = test system: HL-60(TB) leukemia
[48] = test system: SK-MEL-5 melanoma
[49] = test system: SW-620 colon
[50] = test system: T-47D breast
[51] = test system: SK-OV-3 ovarian
[52] = test system: SR leukemia
[53] = test system: NCI-H23 lung
[54] = test system: U251 CNS
[55] = test system: SNB-19 CNS
[56] = test system: SK-MEL-28 melanoma
[57] = test system: NCI-H460 lung
[58] = test system: HCT-116 colon

COc1ccc(-n2c(N)c(C#N)c(C#N)c2-c2cccc([N+](=O)[O-])c2)cc1
TGI [1]: > 100000 nM | TGI [2]: > 100000 nM | TGI [3]: > 100000 nM | TGI [4]: > 100000 nM | TGI [5]: > 100000 nM | TGI [6]: > 100000 nM | TGI [7]: > 100000 nM | TGI [8]: > 100000 nM | TGI [9]: > 100000 nM | TGI [10]: > 100000 nM | TGI [11]: > 100000 nM | TGI [12]: 68700 nM | TGI [13]: > 100000 nM | TGI [14]: > 100000 nM | TGI [15]: > 100000 nM | TGI [16]: > 100000 nM | TGI [17]: > 100000 nM | TGI [18]: > 100000 nM | TGI [19]: 65100 nM | TGI [20]: > 100000 nM | TGI [21]: > 100000 nM | TGI [22]: > 100000 nM | TGI [23]: > 100000 nM | TGI [24]: > 100000 nM | TGI [25]: > 100000 nM | TGI [26]: > 100000 nM | TGI [27]: > 100000 nM | TGI [28]: > 100000 nM | TGI [29]: > 100000 nM | TGI [30]: 44800 nM | TGI [31]: > 100000 nM | TGI [32]: > 100000 nM | TGI [33]: > 100000 nM | TGI [34]: > 100000 nM | TGI [35]: > 100000 nM | TGI [36]: > 100000 nM | TGI [37]: > 100000 nM | TGI [38]: > 100000 nM | TGI [39]: 8680 nM | TGI [40]: > 100000 nM | TGI [41]: > 100000 nM | TGI [42]: > 100000 nM | TGI [43]: > 100000 nM | TGI [44]: > 100000 nM | TGI [45]: > 100000 nM | TGI [46]: > 100000 nM | TGI [47]: > 100000 nM | TGI [48]: > 100000 nM | TGI [49]: > 100000 nM | TGI [50]: > 100000 nM | TGI [51]: > 100000 nM | TGI [52]: > 100000 nM | TGI [53]: > 100000 nM | TGI [54]: > 100000 nM | TGI [55]: > 100000 nM

O=C(c1ccccc1)c1c(C(F)(F)F)n([O-])c2ccc(F)cc2[n+]1=O
GI50 [1]: 872 nM | TGI [1]: 2470 nM | GI50 [2]: 501 nM | TGI [2]: 1570 nM | GI50 [3]: 1090 nM | TGI [3]: 2340 nM | GI50 [4]: 1540 nM | TGI [4]: 3230 nM | GI50 [5]: 1300 nM | TGI [5]: 2570 nM | GI50 [6]: 252 nM | TGI [6]: 828 nM | GI50 [7]: 1300 nM | TGI [7]: 2660 nM | GI50 [8]: 1630 nM | TGI [8]: 3180 nM | GI50 [9]: 992 nM | TGI [9]: 2440 nM | GI50 [10]: 373 nM | TGI [10]: 1670 nM | GI50 [11]: 383 nM | TGI [11]: 926 nM | GI50 [12]: 749 nM | TGI [12]: 2970 nM | GI50 [13]: 1240 nM | TGI [13]: 2520 nM | GI50 [56]: 1100 nM | TGI [56]: 2320 nM | GI50 [14]: 911 nM | TGI [14]: 2590 nM | GI50 [16]: 1500 nM | TGI [16]: 2850 nM | GI50 [17]: 2380 nM | TGI [17]: 6040 nM | GI50 [18]: 349 nM | TGI [18]: > 100000 nM | GI50 [19]: 434 nM | TGI [19]: 1450 nM | GI50 [21]: 773 nM | TGI [21]: 1900 nM | GI50 [57]: 663 nM | TGI [57]: 2290 nM | GI50 [22]: 1440 nM | TGI [22]: 2880 nM | GI50 [23]: 1280 nM | TGI [23]: 2670 nM | GI50 [24]: 1380 nM | TGI [24]: 2740 nM | GI50 [25]: 1360 nM | TGI [25]: 2650 nM | GI50 [26]: 882 nM | TGI [26]: 2180 nM | GI50 [27]: 1440 nM | TGI [27]: 5080 nM | GI50 [28]: 348 nM | TGI [28]: 1770 nM | GI50 [29]: 1340 nM | TGI [29]: 2710 nM | GI50 [30]: 362 nM | TGI [30]: 1480 nM | GI50 [58]: 307 nM | TGI [58]: 1020 nM | GI50 [31]: 1760 nM | TGI [31]: 3480 nM | GI50 [32]: 945 nM | TGI [32]: 2400 nM | GI50 [33]: 1020 nM | TGI [33]: 2570 nM | GI50 [34]: 1550 nM | TGI [34]: 3020 nM | GI50 [35]: 167 nM | TGI [35]: 317 nM | GI50 [36]: 252 nM | TGI [36]: 788 nM | GI50 [37]: 1750 nM | TGI [37]: 4130 nM | GI50 [38]: 1370 nM | TGI [38]: 3040 nM | GI50 [39]: 1470 nM | TGI [39]: 3350 nM | GI50 [40]: 551 nM | TGI [40]: 1930 nM | GI50 [41]: 517 nM | TGI [41]: 1980 nM | GI50 [42]: 502 nM | TGI [42]: 1790 nM | GI50 [43]: 662 nM | TGI [43]: 1630 nM | GI50 [44]: 260 nM | TGI [44]: 758 nM | GI50 [45]: 1780 nM | TGI [45]: 4810 nM | GI50 [46]: 211 nM | TGI [46]: 394 nM | GI50 [47]: 188 nM | TGI [47]: 869 nM | GI50 [48]: 778 nM | TGI [48]: 2180 nM | GI50 [49]: 147 nM | TGI [49]: 306 nM | GI50 [50]: 655 nM | TGI [50]: 2510 nM | GI50 [51]: 1890 nM | TGI [51]: 3390 nM | GI50 [52]: 95.7 nM | GI50 [53]: 980 nM | TGI [53]: 2590 nM | GI50 [54]: 1070 nM | TGI [54]: 2260 nM | GI50 [55]: 1870 nM | TGI [55]: 4010 nM
